Laboratory results reported in patent publication US10980781B2, “6-amino-2,4-dihydropyrano [2,3-c] pyrazoles and methods of use” (Purdue Research Foundation, priority 2017, dated 2021).

Target: USP7 (Homo sapiens (Human), UniProt Q93009)
Assay: USP7 inhibition assay with Ub-Rho 110 substrate (fluorescence progress curves)
Format: biochemical
Conditions: for inhibition at 100 µM / % inhibition @100 μM: 100 μM compound, 1 nM USP7, 200 nM Ub-Rho 110, 3% DMSO, triplicate; for IC50: 11 compound concentrations, two-fold serial dilutions
Procedure: Each assay was measured in triplicate. […] All reactions contained a final concentration of 3% DMSO. […] The percent inhibition was calculated using Equation (1).
The assay design was identical to as described above. The percent inhibition was calculated using Equation 1 and fit to Equation 2 by use of the Enzyme Kinetics Module of Sigma Plot (v13:Systat Software Inc.), to determine the IC50 value.

Chain of USP7 (Q93009 whole entry): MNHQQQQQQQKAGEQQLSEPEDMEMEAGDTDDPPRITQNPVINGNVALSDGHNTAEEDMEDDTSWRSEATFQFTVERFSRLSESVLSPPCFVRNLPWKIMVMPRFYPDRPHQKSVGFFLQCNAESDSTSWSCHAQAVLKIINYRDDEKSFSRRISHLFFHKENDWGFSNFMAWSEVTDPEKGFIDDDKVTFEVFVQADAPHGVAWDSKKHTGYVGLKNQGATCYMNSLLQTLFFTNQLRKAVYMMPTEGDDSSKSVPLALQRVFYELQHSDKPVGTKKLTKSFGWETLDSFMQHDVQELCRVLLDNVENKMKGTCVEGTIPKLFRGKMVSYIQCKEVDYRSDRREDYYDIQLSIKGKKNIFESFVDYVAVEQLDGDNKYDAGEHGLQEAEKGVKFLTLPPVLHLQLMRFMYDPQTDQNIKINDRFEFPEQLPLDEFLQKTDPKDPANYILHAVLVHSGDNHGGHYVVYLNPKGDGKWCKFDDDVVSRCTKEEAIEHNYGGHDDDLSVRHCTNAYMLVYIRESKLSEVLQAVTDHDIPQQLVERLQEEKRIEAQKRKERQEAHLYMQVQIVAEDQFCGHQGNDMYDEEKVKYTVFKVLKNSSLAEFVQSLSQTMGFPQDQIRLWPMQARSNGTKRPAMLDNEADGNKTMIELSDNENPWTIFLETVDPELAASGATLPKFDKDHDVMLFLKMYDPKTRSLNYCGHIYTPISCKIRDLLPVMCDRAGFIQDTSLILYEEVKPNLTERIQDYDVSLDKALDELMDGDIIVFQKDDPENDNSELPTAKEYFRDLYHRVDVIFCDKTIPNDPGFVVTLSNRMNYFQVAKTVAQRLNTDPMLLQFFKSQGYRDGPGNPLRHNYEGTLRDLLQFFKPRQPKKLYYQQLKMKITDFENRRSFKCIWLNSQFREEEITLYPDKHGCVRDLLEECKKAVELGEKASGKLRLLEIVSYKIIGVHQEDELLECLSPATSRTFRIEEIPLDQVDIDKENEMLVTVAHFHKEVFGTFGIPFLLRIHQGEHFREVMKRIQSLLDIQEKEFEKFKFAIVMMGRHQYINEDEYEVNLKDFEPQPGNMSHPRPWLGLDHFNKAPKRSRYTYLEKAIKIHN

SMILES	inhibition at 100 µM	IC50 (1 nM USP7, 200 nM Ub-Rho 110)	% inhibition @100 μM	inhibition at 150 µM (tested at 150 μM compound, 1 nM USP7, 200 nM Ub-Rho 110)
N#CC1=C(N)Oc2n[nH]c(-c3cccs3)c2C1c1ccc([N+](=O)[O-])cc1 (racemic) [Compound 6g, 6-Amino-4-(4-nitrophenyl)-3-(thiophen-2-yl)-2,4-dihydropyrano[2,3-c]pyrazole-5-carbonitrile]	57 ± 2%	33 ± 5 µM		
C#CCOc1ccc(C2C(C#N)=C(N)Oc3n[nH]c(-c4cccs4)c32)cc1Br (racemic) [Compound 6n, 6-Amino-4-(3-bromo-4-(prop-2-yn-1-yloxy)phenyl)-3-(thiophen-2-yl)-2,4-dihydropyrano[2,3-c]pyrazole-5-carbonitrile]	84 ± 2%	4.5 ± 0.6 µM		
N#CC1=C(N)Oc2n[nH]c(-c3cccs3)c2C1c1ccc2c(c1)CCO2 (racemic) [Compound 6o, 6-Amino-4-(2,3-dihydrobenzofuran-5-yl)-3-(thiophen-2-yl)-2,4-dihydropyrano [2,3-c]pyrazole-5-carbonitrile]	45 ± 9%	13 ± 3 µM		
N#CC1=C(N)Oc2n[nH]c(-c3cccs3)c2C1c1ccc(O)c(C(F)(F)F)c1 (racemic) [Compound 6q, 6-Amino-4-(4-hydroxy-3-(trifluoromethyl)phenyl)-3-(thiophen-2-yl)-2,4-dihydropyrano[2,3-c]pyrazole-5-carbonitrile]	92 ± 2%	11 ± 0.7 µM		
COc1cc(C)c(C2C(C#N)=C(N)Oc3n[nH]c(-c4cccs4)c32)cc1C(C)C (racemic) [Compound 6r, 6-Amino-4-(5-isopropyl-4-methoxy-2-methylphenyl)-3-(thiophen-2-yl)-2,4-dihydropyrano[2,3-c]pyrazole-5-carbonitrile]	95 ± 4%	1.4 ± 0.2 µM		
COc1ccc(C2C(C#N)=C(N)Oc3n[nH]c(-c4cccs4)c32)cc1F (racemic) [Compound 6s, 6-Amino-4-(3-fluoro-4-methoxyphenyl)-3-(thiophen-2-yl)-2,4-dihydropyrano [2,3-c]pyrazole-5-carbonitrile]	32 ± 13%	7 ± 2 µM		
COc1ccc(C2C(C#N)=C(N)Oc3n[nH]c(-c4cccs4)c32)cc1Cl (racemic) [Compound 6t, 6-Amino-4-(3-chloro-4-methoxyphenyl)-3-(thiophen-2-yl)-2,4-dihydropyrano [2,3-c]pyrazole-5-carbonitrile]	55 ± 3%	7 ± 2 µM		
COc1ccc(C2C(C#N)=C(N)Oc3n[nH]c(-c4cccs4)c32)cc1I (racemic) [Compound 6u, 6-Amino-4-(3-iodo-4-methoxyphenyl)-3-(thiophen-2-yl)-2,4-dihydropyrano [2,3-c]pyrazole-5-carbonitrile]	85 ± 1%	1.8 ± 0.1 µM		
N#CC1=C(N)Oc2n[nH]c(-c3cccs3)c2C1c1ccc(O)c(C(F)(F)F)c1 (racemic) [Compound 6v, 6-Amino-4-(4-hydroxy-3-(trifluoromethyl)phenyl)-3-(thiophen-2-yl)-2,4-dihydropyrano[2,3-c]pyrazole-5-carbonitrile]		0.75 ± 0.06 µM	93 ± 4%	
COc1ccc(C2C(C#N)=C(N)Oc3n[nH]c(-c4ccsc4)c32)cc1Br (racemic) [Compound 7a, 6-Amino-4-(3-bromo-4-methoxyphenyl)-3-(thiophen-3-yl)-2,4-dihydropyrano [2,3-c]pyrazole-5-carbonitrile]	72 ± 4%	8.1 ± 1 µM		
COc1ccc(C2C(C#N)=C(N)Oc3n[nH]c(-c4ccsc4)c32)cc1I (racemic) [Compound 7b, 6-Amino-4-(3-iodo-4-methoxyphenyl)-3-(thiophen-3-yl)-2,4-dihydropyrano [2,3-c]pyrazole-5-carbonitrile]	71 ± 3%	5.6 ± 0.7 µM		
COc1ccc(C2C(C#N)=C(N)Oc3n[nH]c(-c4ccccn4)c32)cc1Br (racemic) [Compound 7c, 6-Amino-4-(3-bromo-4-methoxyphenyl)-3-(pyridin-2-yl)-2,4-dihydropyrano [2,3-c]pyrazole-5-carbonitrile]	85 ± 2%	7.9 ± 0.4 µM		
COc1ccc(C2C(C#N)=C(N)Oc3n[nH]c(-c4ccccn4)c32)cc1I (racemic) [Compound 7d, 6-Amino-4-(3-iodo-4-methoxyphenyl)-3-(pyridin-2-yl)-2,4-dihydropyrano [2,3-c]pyrazole-5-carbonitrile]		4.4 µM		89 ± 2%
COc1ccc(C2C(C#N)=C(N)Oc3n[nH]c(-c4cccnc4)c32)cc1Br (racemic) [Compound 7e, 6-Amino-4-(3-bromo-4-methoxyphenyl)-3-(pyridin-3-yl)-2,4-dihydropyrano [2,3-c]pyrazole-5-carbonitrile]	82 ± 9%	24 ± 5 µM		
COc1ccc(C2C(C#N)=C(N)Oc3n[nH]c(-c4cccnc4)c32)cc1I (racemic) [Compound 7f, 6-Amino-4-(3-iodo-4-methoxyphenyl)-3-(pyridin-3-yl)-2,4-dihydropyrano [2,3-c]pyrazole-5-carbonitrile]	83 ± 3%	7.7 ± 0.9 µM		
COc1ccc(C2C(C#N)=C(N)Oc3n[nH]c(-c4ccc(Cl)cc4)c32)cc1Br (racemic) [Compound 7h, 6-Amino-4-(3-bromo-4-methoxyphenyl)-3-(4-chlorophenyl)-2,4-dihydropyrano [2,3-c]pyrazole-5-carbonitrile]	66 ± 3%	7.5 ± 0.9 µM		

SMILES	inhibition at 100 µM	IC50 (1 nM USP7, 200 nM Ub-Rho 110)	% inhibition @100 μM	inhibition at 150 µM (tested at 150 μM compound, 1 nM USP7, 200 nM Ub-Rho 110)
COc1ccc(C2C(C#N)=C(N)Oc3n[nH]c(-c4ccn(C)c4)c32)cc1Br (racemic) [Compound 7l, 6-Amino-4-(3-bromo-4-methoxyphenyl)-3-(1-methyl-1H-pyrrol-3-yl)-2,4-dihydropyrano[2,3-c]pyrazole-5-carbonitrile]	88 ± 0.09%	1.91 ± 0.8 µM		
COc1ccc(C2C(C#N)=C(N)Oc3n[nH]c(-c4ccn(C)c4)c32)cc1I (racemic) [Compound 7m, 6-Amino-4-(3-iodo-4-methoxyphenyl)-3-(1-methyl-1H-pyrrol-3-yl)-2,4-dihydropyrano[2,3-c]pyrazole-5-carbonitrile]	89 ± 1%	1.31 ± 0.06 µM		
COc1ccc(C2C(C#N)=C(N)Oc3n[nH]c(-c4cccs4)c32)cc1Br (centres unmarked) [Compound 6a, 6-Amino-4-(3-bromo-4-methoxyphenyl)-3-(thiophen-2-yl)-2,4-dihydropyrano [2,3-c]pyrazole-5-carbonitrile]	72 ± 3%			
COc1ccc(C2C(C#N)=C(N)Oc3n[nH]c(-c4cccs4)c32)cc1 (centres unmarked) [Compound 6b, 6-Amino-4-(4-methoxyphenyl)-3-(thiophen-2-yl)-2,4-dihydropyrano [2,3-c]pyrazole-5-carbonitrile]	10 ± 7%			
N#CC1=C(N)Oc2n[nH]c(-c3cccs3)c2C1c1cccc(Br)c1 (centres unmarked) [Compound 6c, 6-Amino-4-(3-bromophenyl)-3-(thiophen-2-yl)-2,4-dihydropyrano[2,3-c]pyrazole-5-carbonitrile]	0%			
N#CC1=C(N)Oc2n[nH]c(-c3cccs3)c2C1c1ccc(O)cc1 (centres unmarked) [Compound 6d, 6-Amino-4-(4-hydroxyphenyl)-3-(thiophen-2-yl)-2,4-dihydropyrano [2,3-c]pyrazole-5-carbonitrile]	0%			
Cc1ccc(C2C(C#N)=C(N)Oc3n[nH]c(-c4cccs4)c32)cc1 (centres unmarked) [Compound 6e, 6-Amino-3-(thiophen-2-yl)-4-(p-tolyl)-2,4-dihydropyrano [2,3-c]pyrazole-5-carbonitrile]	0%			
N#CC1=C(N)Oc2n[nH]c(-c3cccs3)c2C1c1ccc(Cl)cc1 (centres unmarked) [Compound 6f, 6-Amino-4-(4-chlorophenyl)-3-(thiophen-2-yl)-2,4-dihydropyrano[2,3-c]pyrazole-5-carbonitrile]	31 ± 6%			
N#CC1=C(N)Oc2n[nH]c(-c3cccs3)c2C1c1ccc2c(c1)-c1ccccc1C2 (centres unmarked) [Compound 6h, 6-amino-4-(9H-fluoren-3-yl)-3-(thiophen-2-yl)-2,4-dihydropyrano [2,3-c]pyrazole-5-carbonitrile]	38 ± 6%			
C=CCN1CCc2ccc(C3C(C#N)=C(N)Oc4n[nH]c(-c5cccs5)c43)cc21 (centres unmarked) [Compound 6i, 4-(1-Allylindolin-6-yl)-6-amino-3-(thiophen-2-yl)-2,4-dihydropyrano[2,3-c]pyrazole-5-carbonitrile]	63 ± 1%			
N#CC1=C(N)Oc2n[nH]c(-c3cccs3)c2C1c1cc(Br)c(OCc2ccccc2)c(Br)c1 (centres unmarked) [Compound 6l, 6-amino-4-(4-(benzyloxy)-3,5-dibromophenyl)-3-(thiophen-2-yl)-2,4-dihydropyrano[2,3-c]pyrazole-5-carbonitrile]	26 ± 3%			
CCCOc1ccc(C2C(C#N)=C(N)Oc3n[nH]c(-c4cccs4)c32)cc1Br (centres unmarked) [Compound 6m, 6-Amino-4-(3-bromo-4-propoxyphenyl)-3-(thiophen-2-yl)-2,4-dihydropyrano [2,3-c]pyrazole-5-carbonitrile]	32 ± 5%			
N#CC1=C(N)Oc2n[nH]c(-c3cccs3)c2C1c1ccc(N=[N+]=[N-])c(I)c1 (centres unmarked) [Compound 6p, 6-Amino-4-(4-azido-3-iodophenyl)-3-(thiophen-2-yl)-2,4-dihydropyrano[2,3-c]pyrazole-5-carbonitrile]	62 ± 20%			
Cc1ccc(C2C(C#N)=C(N)Oc3n[nH]c(-c4ccc(Cl)cc4)c32)cc1C (centres unmarked) [Compound 7g, 6-Amino-3-(4-chlorophenyl)-4-(3,4-dimethylphenyl)-2,4-dihydropyrano[2,3-c]pyrazole-5-carbonitrile]	34 ± 6%			
COc1ccc(C2C(C#N)=C(N)Oc3n[nH]c(-c4ccc(Cl)cc4)c32)cc1I (centres unmarked) [Compound 7i, 6-Amino-3-(4-chlorophenyl)-4-(3-iodo-4-methoxyphenyl)-2,4-dihydropyrano [2,3-c]pyrazole-5-carbonitrilem]		15 ± 2 µM	69 ± 3%	
